Assay results reported in the supplement of paper PMC10307832.

Key:
Test in all cases: relative viability (nuclei count vs DMSO), 5 days (fraction); higher = more cells survive
[1] = tested on: CAL-12T
In short: (§1)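 Lung cancer cell lines in 1536-well plates were dosed by pin tool the day after seeding, either with one drug alone or with a fixed anchor-drug dose plus five library-drug doses (not always all listed) in √10 steps. After 5 days, cells were fixed and their nuclei stained in one step (final 0.05% Triton X-100, 1% formaldehyde, 1 ug/ml Hoechst), then counted on 4× images. Relative viability is the nuclei count in treated wells divided by that in vehicle wells. Values are medians of duplicate plates.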

[2] = tested on: COR-L 105
In short: as §1

[3] = tested on: H3255
In short: as §1

[4] = tested on: HARA
In short: as §1

[5] = tested on: HCC-15
In short: as §1

[6] = tested on: HCC-366
In short: as §1

[7] = tested on: LC-2-ad
In short: as §1

[8] = tested on: LU99A
In short: as §1

[9] = tested on: NCI-H1395
In short: as §1

[10] = tested on: NCI-H1666
In short: as §1

[11] = tested on: NCI-H1734
In short: as §1

[12] = tested on: NCI-H1944
In short: as §1

[13] = tested on: NCI-H1975
In short: as §1

[14] = tested on: NCI-H1993
In short: as §1

[15] = tested on: NCI-H2228
In short: as §1

[16] = tested on: NCI-H3122
In short: as §1

[17] = tested on: NCI-H520
In short: as §1

[18] = tested on: NCI-H647
In short: as §1

[19] = tested on: NCI-H661
In short: as §1

[20] = tested on: NCI-H838
In short: as §1

[21] = tested on: PC-14
In short: as §1

[22] = tested on: PC-3 [JPC-3]
In short: as §1

[23] = tested on: SK-LU-1
In short: as §1

Work on O=c1[nH]c2ccccc2n1C1CCN(CCCC(c2ccc(F)cc2)c2ccc(F)cc2)CC1 [Pimozide] + CS(=O)(=O)CCNCc1ccc(-c2ccc3ncnc(Nc4ccc(OCc5cccc(F)c5)c(Cl)c4)c3c2)o1 [Lapatinib] (partner 2 µM) yielded a relative viability ([1]; first compound 0.08 µM) of 0.57, a relative viability ([1]; first compound 0.253 µM) of 0.588 and a relative viability ([1]; first compound 0.8 µM) of 0.551. It also gave a relative viability ([1]; first compound 2.53 µM) of 0.538, a relative viability ([1]; first compound 8 µM) of 0.625 and a relative viability ([2]; first compound 0.253 µM) of 0.395. The relative viability ([2]; first compound 0.8 µM) was 0.377, the relative viability ([2]; first compound 2.53 µM) was 0.396 and the relative viability ([2]; first compound 8 µM) was 0.351. The relative viability ([3]; first compound 0.253 µM) was 0.281, the relative viability ([3]; first compound 0.8 µM) was 0.266 and the relative viability ([3]; first compound 2.53 µM) was 0.229. It also gave a relative viability ([3]; first compound 8 µM) of 0.254, a relative viability ([4]; first compound 0.08 µM) of 0.765 and a relative viability ([4]; first compound 0.253 µM) of 0.963. It also gave a relative viability ([4]; first compound 0.8 µM) of 0.755, a relative viability ([4]; first compound 2.53 µM) of 0.776 and a relative viability ([4]; first compound 8 µM) of 0.561. The relative viability ([5]; first compound 0.08 µM) was 0.857, the relative viability ([5]; first compound 0.253 µM) was 0.889 and the relative viability ([5]; first compound 0.8 µM) was 0.701. For the same compound, the relative viability ([5]; first compound 2.53 µM) was 0.791, the relative viability ([5]; first compound 8 µM) was 0.777 and the relative viability ([6]; first compound 0.08 µM) was 0.971. It also gave a relative viability ([6]; first compound 0.253 µM) of 1.02, a relative viability ([6]; first compound 0.8 µM) of 0.988 and a relative viability ([6]; first compound 2.53 µM) of 1.01. For the same compound, the relative viability ([6]; first compound 8 µM) was 1.06, the relative viability ([7]; first compound 0.08 µM) was 0.943 and the relative viability ([7]; first compound 0.253 µM) was 0.918. For the same compound, the relative viability ([7]; first compound 0.8 µM) was 0.918, the relative viability ([7]; first compound 2.53 µM) was 0.949 and the relative viability ([7]; first compound 8 µM) was 0.6. It also gave a relative viability ([8]; first compound 0.08 µM) of 0.969, a relative viability ([8]; first compound 0.253 µM) of 0.982 and a relative viability ([8]; first compound 0.8 µM) of 0.757. The relative viability ([8]; first compound 2.53 µM) was 1.03, the relative viability ([8]; first compound 8 µM) was 0.888 and the relative viability ([9]; first compound 0.08 µM) was 0.966. It also gave a relative viability ([9]; first compound 0.253 µM) of 1.17, a relative viability ([9]; first compound 0.8 µM) of 1.06 and a relative viability ([9]; first compound 2.53 µM) of 0.756. For the same compound, the relative viability ([9]; first compound 8 µM) was 0.838, the relative viability ([10]; first compound 0.08 µM) was 0.592 and the relative viability ([10]; first compound 0.253 µM) was 0.716. It also gave a relative viability ([10]; first compound 0.8 µM) of 0.621, a relative viability ([10]; first compound 2.53 µM) of 0.365 and a relative viability ([10]; first compound 8 µM) of 0.464. The relative viability ([11]; first compound 0.08 µM) was 1.04, the relative viability ([11]; first compound 0.253 µM) was 1.07 and the relative viability ([11]; first compound 0.8 µM) was 0.978. It also gave a relative viability ([11]; first compound 2.53 µM) of 0.96, a relative viability ([11]; first compound 8 µM) of 0.671 and a relative viability ([12]; first compound 0.08 µM) of 0.802. For the same compound, the relative viability ([12]; first compound 0.253 µM) was 0.76, the relative viability ([12]; first compound 0.8 µM) was 0.62 and the relative viability ([12]; first compound 2.53 µM) was 0.772. It also gave a relative viability ([12]; first compound 8 µM) of 0.794, a relative viability ([13]; first compound 0.08 µM) of 0.928 and a relative viability ([13]; first compound 0.253 µM) of 0.848. It also gave a relative viability ([13]; first compound 0.8 µM) of 0.945, a relative viability ([13]; first compound 2.53 µM) of 0.897 and a relative viability ([13]; first compound 8 µM) of 0.751. For the same compound, the relative viability ([14]; first compound 0.08 µM) was 0.894, the relative viability ([14]; first compound 0.253 µM) was 0.714 and the relative viability ([14]; first compound 0.8 µM) was 0.697. The relative viability ([14]; first compound 2.53 µM) was 0.788, the relative viability ([14]; first compound 8 µM) was 0.901 and the relative viability ([15]; first compound 0.08 µM) was 1.18. For the same compound, the relative viability ([15]; first compound 0.253 µM) was 1.2, the relative viability ([15]; first compound 0.8 µM) was 0.924 and the relative viability ([15]; first compound 2.53 µM) was 0.924. For the same compound, the relative viability ([15]; first compound 8 µM) was 0.669, the relative viability ([16]; first compound 0.08 µM) was 1 and the relative viability ([16]; first compound 0.253 µM) was 1. It also gave a relative viability ([16]; first compound 0.8 µM) of 0.813, a relative viability ([16]; first compound 2.53 µM) of 1 and a relative viability ([16]; first compound 8 µM) of 1.01. For the same compound, the relative viability ([17]; first compound 0.08 µM) was 0.863, the relative viability ([17]; first compound 0.253 µM) was 0.922 and the relative viability ([17]; first compound 0.8 µM) was 0.621. The relative viability ([17]; first compound 2.53 µM) was 0.821, the relative viability ([17]; first compound 8 µM) was 0.776 and the relative viability ([18]; first compound 0.08 µM) was 1.18. The relative viability ([18]; first compound 0.253 µM) was 1.03, the relative viability ([18]; first compound 0.8 µM) was 0.973 and the relative viability ([18]; first compound 2.53 µM) was 0.964. It also gave a relative viability ([18]; first compound 8 µM) of 0.58, a relative viability ([19]; first compound 0.08 µM) of 0.46 and a relative viability ([19]; first compound 0.253 µM) of 0.464. The relative viability ([19]; first compound 0.8 µM) was 0.451, the relative viability ([19]; first compound 2.53 µM) was 0.413 and the relative viability ([19]; first compound 8 µM) was 0.467. For the same compound, the relative viability ([20]; first compound 0.08 µM) was 1.18, the relative viability ([20]; first compound 0.253 µM) was 1.07 and the relative viability ([20]; first compound 0.8 µM) was 0.954. The relative viability ([20]; first compound 2.53 µM) was 0.822, the relative viability ([20]; first compound 8 µM) was 0.829 and the relative viability ([21]; first compound 0.253 µM) was 0.38. It also gave a relative viability ([21]; first compound 0.8 µM) of 0.297, a relative viability ([21]; first compound 2.53 µM) of 0.334 and a relative viability ([21]; first compound 8 µM) of 0.325. The relative viability ([22]; first compound 0.253 µM) was 0.414, the relative viability ([22]; first compound 0.8 µM) was 0.409 and the relative viability ([22]; first compound 2.53 µM) was 0.441. The relative viability ([22]; first compound 8 µM) was 0.406, the relative viability ([23]; first compound 0.08 µM) was 0.773 and the relative viability ([23]; first compound 0.253 µM) was 0.846. It also gave a relative viability ([23]; first compound 0.8 µM) of 0.859, a relative viability ([23]; first compound 2.53 µM) of 0.826 and a relative viability ([23]; first compound 8 µM) of 0.731.
